Results: patent publication US20180169021A1, “RANOLAZINE MULTIPLE COMPRESSED TABLETS” (INTERQUIM, S.A., priority 2015, published 2018)
Values after ≈ are worked out from the molar mass of the structure shown. Where two headings read alike, the source gives them in different places.

How the values were obtained:
[1] = quoted from WO0166093 A2; cited from earlier work
[2] = cited from earlier work
[3] = Dissolution in time of 500 mg ranolazine compressed into tablets, 900 mL aqueous media, paddle 100 rpm (FIG. 1); format: physicochemical; conditions: 100% ranolazine tablet
From the text: As shown in the previous table, ranolazine is much more soluble at acidic pH than in neutral or basic pH.

**Q.** With `COc1ccccc1OCC(O)CN1CCN(CC(=O)Nc2c(C)cccc2C)CC1` (centres unmarked) [Ranolazine, N-(2,6-dimethylphenyl)-2-(4-(2-hydroxy-3-(2-methoxyphenoxy)propyl)piperazin-1-yl)acetamide] as the molecule, how does the Plasma half-life [1] read?
**A.** relatively short

**Q.** What about the Solubility ([2]; Solution pH 4.81) of the same molecule?
**A.** 161000 µg/mL (≈ 377 mM)

**Q.** And the “USP Solubility Class” value ([2]; Solution pH 4.81)?
**A.** Freely Soluble

**Q.** And the Solubility ([2]; Solution pH 4.89)?
**A.** 73800 µg/mL (≈ 173 mM)

**Q.** What about the “USP Solubility Class” value ([2]; Solution pH 4.89) of the same molecule?
**A.** Soluble

**Q.** What about the Solubility ([2]; Solution pH 4.90) of the same molecule?
**A.** 76400 µg/mL (≈ 179 mM)

**Q.** What about the “USP Solubility Class” value ([2]; Solution pH 4.90) of the same molecule?
**A.** Soluble

**Q.** And the Solubility ([2]; Solution pH 5.04)?
**A.** 49400 µg/mL (≈ 116 mM)

**Q.** What about the “USP Solubility Class” value ([2]; Solution pH 5.04) of the same molecule?
**A.** Soluble

**Q.** What about the Solubility ([2]; Solution pH 5.35) of the same molecule?
**A.** 16700 µg/mL (≈ 39.1 mM)

**Q.** What about the “USP Solubility Class” value ([2]; Solution pH 5.35) of the same molecule?
**A.** Sparingly Soluble

**Q.** What about the Solubility ([2]; Solution pH 5.82) of the same molecule?
**A.** 5480 µg/mL (≈ 12.8 mM)

**Q.** What about the “USP Solubility Class” value ([2]; Solution pH 5.82) of the same molecule?
**A.** Slightly soluble

**Q.** What about the Solubility ([2]; Solution pH 6.46) of the same molecule?
**A.** 1630 µg/mL (≈ 3.81 mM)

**Q.** What about the “USP Solubility Class” value ([2]; Solution pH 6.46) of the same molecule?
**A.** Slightly soluble

**Q.** And the Solubility ([2]; Solution pH 6.73)?
**A.** 830 µg/mL (≈ 1.94 mM)

**Q.** What about the “USP Solubility Class” value ([2]; Solution pH 6.73) of the same molecule?
**A.** Very slightly soluble

**Q.** And the Solubility ([2]; Solution pH 7.08)?
**A.** 390 µg/mL (≈ 0.912 mM)

**Q.** And the “USP Solubility Class” value ([2]; Solution pH 7.08)?
**A.** Very slightly soluble

**Q.** And the Solubility ([2]; Solution pH 7.59*)?
**A.** 240 µg/mL (≈ 0.561 mM)

**Q.** What about the “USP Solubility Class” value ([2]; Solution pH 7.59*) of the same molecule?
**A.** Very slightly soluble

**Q.** And the Solubility ([2]; Solution pH 7.79)?
**A.** 170 µg/mL (≈ 0.398 mM)

**Q.** What about the “USP Solubility Class” value ([2]; Solution pH 7.79) of the same molecule?
**A.** Very slightly soluble

**Q.** What about the Solubility ([2]; Solution pH 12.66) of the same molecule?
**A.** 180 µg/mL (≈ 0.421 mM)

**Q.** And the “USP Solubility Class” value ([2]; Solution pH 12.66)?
**A.** Very slightly soluble

**Q.** What about the Solubility ([2]; low pH that occurs in the stomach, quoted from WO0166093 A2) of the same molecule?
**A.** relatively high

**Q.** What about the “Time until all the ranolazine is dissolved” value ([3]; pH 1 (0.1 M HCl)) of the same molecule?
**A.** less than 30 minutes

**Q.** What about the Ranolazine dissolved ([3]; pH 6.8, 30 minutes) of the same molecule?
**A.** around 63%

**Q.** What about the Extent of dissolution ([3]; pH 6.8, 12 hours) of the same molecule?
**A.** not yet fully dissolved
